± gives the standard deviation of the averaged measurements.
Tests used:
Experiment in all cases: CTG-3D luminescence at 96 h relative to day-0 seeding control (ratio to day 0); higher = more growth / less cytotoxicity; PDxO 3D drug screen, 96 h, CTG-3D normalised to day-0 seeding control.
[1] = test system: HCI-027 (organoid from a triple-negative breast cancer xenograft)
[2] = test system: HCI-017.E2 (organoid from an ER-positive breast cancer xenograft)
[3] = test system: HCI-023 (organoid from a triple-negative breast cancer xenograft)
[4] = test system: HCI-008 (organoid from a HER2-enriched breast cancer xenograft)
[5] = test system: HCI-010 (organoid from a breast cancer xenograft)
[6] = test system: HCI-015 (organoid from a triple-negative breast cancer xenograft)
[7] = test system: MDA-MB-231

CC(C)(C(=O)NCC(F)(F)C(F)(F)F)C(=O)N[C@@H]1C(=O)Nc2ccccc2-c2ccccc21
CTG-3D luminescence at 96 h
Settings	12.5 pM	0.00025 µM	0.005 µM	0.1 µM	1 µM	10 µM	100 µM	625 fM
[1], days in culture: 176	2.35	1.45	1.79	0.289	0.192	0.176	0.165	1.96
[1], days in culture: 194	1.64	1.41	1.38	0.35	0.281	0.486	0.484	1.55
[1], days in culture: 201	2.24	1.62	1.57	0.358	0.288	0.407	0.247	1.99
[2], days in culture: 85	2.5	2.8	2.42	1.44	1.19	1.24	1.25	2.29
[3], days in culture: 111	1.36	1.08	0.961	0.975	0.945	1.09	0.672	1.53
[3], days in culture: 128	1.61 ± 0.47	1.47 ± 0.38	1.06 ± 0.24	1.27 ± 0.017	1.17 ± 0.31	1.65 ± 0.21	0.804 ± 0.066	1.64 ± 0.92
[4], days in culture: 228	1.74 ± 0.057	1.41 ± 0.29	1 ± 0.14	1.3 ± 0.034	1.17 ± 0.18	1.68 ± 0.26	1.05 ± 0.2	1.81 ± 0.063
[4], days in culture: 244	1.18	1.67	1.24	1.59	1.45	1.45	0.931	2.05
[5], days in culture: 52	2.08	1.91	2.38	2.13	1.86	1.9	1.24	2.2
[5], days in culture: 65	1.59	1.67	1.85	1.82	1.7	1.58	0.419	1.79
[5], days in culture: 103	2.86	2.96	2.93	2.95	2.98	2.72	2.02	3.05
[6], days in culture: 172	1.79	0.907	1.41	0.52	0.649	0.927	0.996	1.66
[6], days in culture: 191	2.23	0.752	0.752	0.54	0.523	0.502	0.509	1.89
[6], days in culture: 218	1.79	1.02	1.03	0.889	0.743	0.516	0.649	1.97

CTG-3D luminescence at 96 h
Settings	12.5 pM	0.00025 µM	0.005 µM	0.1 µM	1 µM	10 µM	100 µM	625 fM
[2]	1.84 ± 0.22	2.1 ± 0.19	2.09 ± 0.6	2.12 ± 0.22	2.04 ± 0.16	1.78 ± 0.29	1.23 ± 0.24	2.06 ± 0.25
[7]	4.58 ± 1.4	4.53 ± 1.4	4.6 ± 1.4	4.48 ± 1.2	4.6 ± 1.4	4.7 ± 1.3	4.04 ± 1	4.6 ± 1.2

CCN(c1cc(C#CCN2CCOCC2)cc(C(=O)NCc2c(C)cc(C)[nH]c2=O)c1C)[C@H]1CC[C@H](N(C)CCOC)CC1
CTG-3D luminescence at 96 h
Settings	12.5 pM	0.00025 µM	0.005 µM	0.1 µM	1 µM	10 µM	100 µM	625 fM
[1], days in culture: 176	2.06	2.13	3.35	1.65	1.87	2.06	1.32	2.38
[1], days in culture: 194	2.66	1.86	2.09	2.1	2.03	2.21	2.02	1.98
[1], days in culture: 201	3.28	3.2	2.92	2.89	3.09	2.64	2.22	2.42
[2], days in culture: 85	1.88	2.36	2.01	2.07	1.45	1.61	1.9	1.77
[3], days in culture: 111	1.69	1.38	1.47	1.39	1.14	1.42	0.673	2.1
[3], days in culture: 128	1.51 ± 0.29	1.63 ± 0.46	1.57 ± 0.1	1.99 ± 0.051	1.77 ± 0.31	2.02 ± 0.27	1.09 ± 0.066	1.5 ± 0.32
[4], days in culture: 228	1.54 ± 0.067	1.571 ± 0.015	1.283 ± 0.0089	1.61 ± 0.1	1.59 ± 0.14	1.63 ± 0.48	1.43 ± 0.024	1.77 ± 0.43
[4], days in culture: 244	1.38	2.13	1.81	2.04	1.7	2.31	2.04	2.47
[5], days in culture: 52	1.83	2.5	2.34	2.47	2.48	2.29	1.5	2.03
[5], days in culture: 65	1.6	1.76	1.72	1.49	1.78	1.58	1.05	1.8
[5], days in culture: 103	3.17	3.22	3.07	3.35	3.09	2.84	1.88	2.7
[6], days in culture: 172	2.25	1.77	2.86	1.78	2.2	1.94	1.91	2.23
[6], days in culture: 191	2.6	1.59	1.92	1.44	2.09	1.44	1.13	1.91
[6], days in culture: 218	1.78	1.4	2	1.49	1.67	2.02	0.907	2.07

CTG-3D luminescence at 96 h
Settings	12.5 pM	0.00025 µM	0.005 µM	0.1 µM	1 µM	10 µM	100 µM	625 fM
[2]	1.57 ± 0.12	1.65 ± 0.21	1.91 ± 0.021	1.81 ± 0.1	1.72 ± 0.17	2.01 ± 0.46	1.5 ± 0.8	2.01 ± 0.32
[7]	4.49 ± 1.2	4.37 ± 1.4	4.44 ± 1.4	4.29 ± 1.3	4.31 ± 1.5	4.37 ± 1.4	4.39 ± 1.3	4.51 ± 1.3

NC(=O)Nc1cc(-c2cccc(F)c2)sc1C(=O)N[C@H]1CCCNC1 [AZD7762]
CTG-3D luminescence at 96 h
Settings	12.5 pM	0.00025 µM	0.005 µM	0.1 µM	1 µM	10 µM	100 µM	625 fM
[1], days in culture: 176	1.95	1.34	2.55	0.208	0.0981	0.0356	-0.00164	2.05
[1], days in culture: 194	1.41	1.22	1.34	0.159	0.0911	0.0685	-0.00154	1.61
[1], days in culture: 201	1.43	2.16	2.35	0.166	0.0767	0.078	-1.51e-05	1.6
[2], days in culture: 85	2.53	3.05	2.76	2.37	1.67	1.26	0.0135	2.7
[3], days in culture: 111	1.36	1.49	1.15	0.765	0.201	0.0705	-9.95e-05	1.52
[3], days in culture: 128	1.552 ± 0.0041	1.6 ± 0.15	1.32 ± 0.11	0.581 ± 0.098	0.161 ± 0.022	0.133 ± 0.025	0.000895 ± 0.00032	1.67 ± 0.069
[4], days in culture: 228	1.63 ± 0.096	1.9 ± 0.19	1.65 ± 0.16	1.14 ± 0.068	0.449 ± 0.23	0.196 ± 0.24	-0.128 ± 0.18	1.86 ± 0.35
[4], days in culture: 244	1.39	1.87	2.45	1.66	0.881	0.413	0.00425	2.38
[5], days in culture: 52	2.15	2.42	2.03	0.844	0.355	0.327	-0.0157	2.28
[5], days in culture: 65	1.69	1.62	1.42	0.742	0.378	0.219	0.00203	1.65
[5], days in culture: 103	3.16	3.35	3.16	1.23	0.651	0.537	0.0021	3.22
[6], days in culture: 172	2.49	1.87	2.19	0.668	0.336	0.117	0.000941	2.32
[6], days in culture: 191	1.83	1.42	1.11	0.566	0.248	0.12	-0.000313	1.28
[6], days in culture: 218	1.16	1.65	1.65	0.692	0.211	0.102	-0.000297	1.59

CTG-3D luminescence at 96 h
Settings	12.5 pM	0.00025 µM	0.005 µM	0.1 µM	1 µM	10 µM	100 µM	625 fM
[2]	1.919 ± 0.0074	2 ± 0.1	2.23 ± 0.41	1.853 ± 0.007	1.22 ± 0.14	1.22 ± 0.22	0.00946 ± 0.0014	2.25 ± 0.22
[7]	4.48 ± 1.4	4.32 ± 1.5	4.52 ± 1.5	3.96 ± 1.1	1.4 ± 0.32	0.628 ± 0.16	0.0187 ± 0.012	4.49 ± 1.4

O=C(/C=C/c1cccnc1)NCCCCC1CCN(C(=O)c2ccccc2)CC1 [FK866]
CTG-3D luminescence at 96 h
Settings	12.5 pM	0.00025 µM	0.005 µM	0.1 µM	1 µM	10 µM	100 µM	625 fM
[1], days in culture: 176	1.98	1.8	0.365	0.104	0.104	0.0553	0.082	2.22
[1], days in culture: 194	1.77	1.47	0.26	0.049	0.0511	0.0527	0.0718	1.63
[1], days in culture: 201	1.55	1.66	0.166	0.0645	0.0296	0.0561	0.0649	1.74
[2], days in culture: 85	2.98	3.2	2.28	0.984	0.928	0.889	0.391	2.15
[3], days in culture: 111	1.12	1.65	0.244	0.0924	0.0716	0.0618	0.0864	1.25
[3], days in culture: 128	1.73 ± 0.35	1.55 ± 0.36	0.315 ± 0.02	0.153 ± 0.032	0.103 ± 0.018	0.135 ± 0.015	0.123 ± 0.029	1.8 ± 0.19
[4], days in culture: 228	1.646 ± 0.0026	1.91 ± 0.069	0.904 ± 0.53	0.206 ± 0.072	0.125 ± 0.022	0.168 ± 0.049	0.162 ± 0.077	1.38 ± 0.11
[4], days in culture: 244	1.37	1.87	1.86	0.263	0.186	0.197	0.173	1.82
[5], days in culture: 52	2.32	2.72	1.25	0.204	0.17	0.139	0.119	2.36
[5], days in culture: 65	1.59	1.73	0.682	0.29	0.227	0.202	0.166	1.66
[5], days in culture: 103	3.4	3.45	2.07	0.97	0.904	0.705	0.347	3.29
[6], days in culture: 172	2.55	0.705	0.752	0.206	0.213	0.158	0.29	2.38
[6], days in culture: 191	2.04	1.32	0.805	0.141	0.243	0.167	0.215	1.64
[6], days in culture: 218	1.79	1.55	0.648	0.169	0.147	0.133	0.158	1.86

CTG-3D luminescence at 96 h
Settings	12.5 pM	0.00025 µM	0.005 µM	0.1 µM	1 µM	10 µM	100 µM	625 fM
[2]	1.61 ± 0.73	1.98 ± 0.36	0.93 ± 0.32	0.759 ± 0.65	0.847 ± 0.7	0.866 ± 0.81	0.328 ± 0.036	1.39 ± 1.2
[7]	4.37 ± 1.3	4.45 ± 1.5	3.77 ± 1.3	0.298 ± 0.16	0.237 ± 0.14	0.236 ± 0.13	0.146 ± 0.08	4.49 ± 1.3

— the supplement of paper PMC8882468
